Tests used:
[1] = test system: primary mouse keratinocytes (1° MK); assay: ET1 secretion by non-stimulated primary mouse keratinocytes (ELISA); format: cell-based
Method: FIGS. 8A-8D: Central role for KC TRPV4 in UVB-evoked Ca^++ signaling and nocifensive behavior—ET1-related supplementary findings. (FIG. 8A) Augmentation of GSK101-evoked Ca^++ signaling by ET1. Shown are averaged Ca^++ measurements (fura-2) in response to 5 nM GSK101. Note the increase in signal in response to co-exposure to ET1. (FIG. 8B) ET1 secretion by non-stimulated 1° MK depends on TRPV4 and PLC. Shown are relative ET1 concentrations (determined by ELISA, pg/mL; vehicle-treated and WT control normalized to 100) in supernatant of non-stimulated 1° MK. Note the clear dependence on TRPV4, as indicated by a 50% reduction in Trpv4^−/− 1° MK. […] There is also down-regulation of ET1 secretion by a specific inhibitor of PLC (U73122), and by an ET-convertase inhibitor, CGS35066, which served as a control compound. In addition, PLC-inhibitor robustly affects ET1 secretion in WT and Trpv4^−/− 1° MK. (FIG. 8C) ET1 expression by UVB-exposed 1° MK depends on TRPV4 and PLC—immunocytochemistry. Shown is specific ET1 immunolabeling in 1° MK, exposed to UVB using the UVB-LEDs, as for Ca^++ imaging. Use of the UVB-LED device precluded application of a ET1 ELISA, only irradiated cells could be examined. […] (FIG. 8D) ET1 expression by UVB-exposed 1° MK depends on TRPV4 and PLC—quantification of immunocytochemistry.

[2] = test system: mouse paw-pad skin, UVB-photodermatitis; assay: UVB-exposed paw-pad skin after topical GSK205: histopathology and mediators; format: in vivo
Method: GSK205 topical treatment: A viscous solution of 68% EtOH/5% glycerol plus 1 mM or 5 mM GSK205 (none for control) was applied to hindpaws by rubbing in 20 μL, applied at time-points 1 hour and again 10 min before UV exposure.
Routine procedures were followed as described previously (Chen et al., 2009). Mice were perfused transcardially with 30 mL PBS, followed by 30 mL 4% paraformaldehyde. Tissues, including the L5 DRGs (bilateral), and footpad preparations, were dissected and post-fixed in 4% paraformaldehyde. Tissue blocks were further cryoprotected in 30% sucrose in PBS for 24-48 hours. For mouse TRPV4, keratin-specific antibodies, phospho-ERK, IL-6, IL-1β, CXCL5 and caspase-1, tissue was prepared as frozen blocks and subsequently sectioned on a cryostat. For CD68, CD15 (neutrophil elastase) and CD3, mouse skin was prepared by 2% PFA perfusion. Footpad and DRG sections (both at 6-10 μm) were thaw-mounted, blocked with 5% normal goat serum (NGS; Jackson), then incubated overnight at 4° C. with the following primary antibodies: rabbit anti-TRPV4 (1:300; Abcam), mouse anti-keratin 14 (1:300; Abcam against C-terminal peptide beyond residue 850); rabbit anti-keratin 14 (1:1000; Fuchs-Lab), rabbit anti-phosph-ERK1/2 (1:500; Cell signaling technologies), goat anti-IL-1β (1:800; Abcam), goat anti-IL-6 (1:200; Santa Cruz Biotechnology Inc); rabbit anti-caspase-1 (1:200; Biovision Research Products, CA); goat anti-mouse LIX/CXCL5 (1:200; R&D Systems Inc), anti-CD68, anti-[…], and anti-CD3 (AbDSerotec). Immunodetection was accomplished with appropriate fluorescently-labeled secondary antibodies (AlexaFluor595, AlexaFluor488-conjugated antibodies at 1:600; Invitrogen; for CD15 biotinylated secondary antibody from donkey, 1:400 followed by rhodamine-streptavidine 1:250), or with peroxidase-linked detection reagents (for CD68) for 2 hours at room-temperature. Sections were rinsed, mounted, and cover-slipped with fluoromount (Sigma). Digital micrographs were obtained using a BX61 Olympus upright microscope, also with a Zeiss LSM510 confocal, both equipped with high-res CCD camera, and acquired with constant exposure settings, using ISEE or Zeiss Zen software. Morphometric analysis was conducted using ImageJ freeware (v1.45) with tailored regions-of-interest that spared the nuclear compartment. ImageJ was also used for determination of DRG surface area.

[3] = UVB permeation of foot-pad skin; set-up: species or system mouse; conditions: topically applied, vs vehicle
Method: The UV LED was powered with 20 mA of current, resulting in 500 μW of optical power in a circular focal spot 1.5 mm in diameter, with 70% of the total flux in a 0.5 mm beam radius. The UV optical power transmitted through the sample was detected by a Hamamatsu S127-66BR UV detector, and the output of the photodetector was measured using a Keithley 236 source measure unit. Next, the foot-pad epidermis of a mouse was measured for UV transmission by placing it on a quartz coverslip and exposure to the UV beam. The vehicle-control group was treated with the alcohol and glycerol solution only. Another control group consisted of a commercially-available SPF100 preparation sunscreen in form of a cream, which was applied similar to the vehicle-control. The data for the GSK205 and sunscreen was normalized to this control data.

[4] = test system: trigeminal formalin-evoked pain behavior; conditions: dose-dependent, intradermal injection; cited from earlier work

CN(CCc1ccc(Nc2nc(-c3cccnc3)cs2)cc1)Cc1ccccc1 [GSK205]
ET1 secretion, supernatant of non-stimulated 1° MK [1]: significant down-regulation | CXCL5 upregulation in UVB-exposed footpad ([2]; topical 5 mM GSK205): significant blocks | IL-1β upregulation in UVB-exposed mouse skin ([2]; topical 5 mM GSK205): failed to upregulate | IL-6 upregulation in UVB-exposed footpad ([2]; topical 5 mM GSK205): significant blocks | histopathology of UVB-exposed paw skin ([2]; topical 5 mM GSK205): virtual elimination of inflammation | Edn1 mRNA-expression in UVB-exposed paw-pad skin ([2]; topical 5 mM GSK205, 2 h and 24 h): unchanged | UVB permeation of paw-pad skin [3]: equal UVB permeation | trigeminal formalin-evoked pain behavior, earlier study [4]: effective attenuation

Reference: patent US11564911B2, “Small molecule dual-inhibitors of TRPV4 and TRPA1 for sanitizing and anesthetizing” (Duke University, priority 2016, dated 2023)
